{"source": "patent US7723347B2", "about": "“Substituted phenylamino-pyrimidines” (Bayer Schering Pharma Aktiengesellschaft, priority 2004, dated 2010)", "key": {"[1]": {"biological_target": "recombinant Rho kinase II (ROKα) (UniProt Q62868)", "test": "Inhibition of recombinant Rho kinase II (ROKα), 33P uptake into S6 substrate peptide", "assay_type": "biochemical", "conditions": "Rho-kinase-catalyzed uptake of 33P into S6 peptide, 37° C., vs solvent control", "procedure": "(§1) The inhibition of the enzyme is investigated in an in vitro assay with recombinant Rho kinase II. The vessel-relaxing action is determined using phenylephrine-induced contractions of isolated rings of the saphenous artery of rabbits.\nInhibition of Recombinant Rho Kinase II (ROKα)\nThe activity of Rho kinase is determined by the uptake of ^33P phosphate into a substrate peptide. To this end, commercially available Rho kinase II (Upstate Biotechnology) is pre-incubated at 37° C. in the presence of the S6 phosphate-acceptor peptide with the test substances or a solvent control for 10 min. The kinase reaction is then started by addition of ^33P-labeled ATP. After 20 min at 37° C., the reaction is stopped by addition of H3PO4. Aliquots are pipetted onto filters and the filters are washed and then covered with scintillator. The radioactivity of the ^33P-labeled peptides bound to the filter is measured in a Micro-Beta counter. The IC50 value corresponds to the concentration of a test substance at which the Rho-kinase-catalyzed uptake of ^33P into the peptide is inhibited by 50%, compared to a solvent control."}, "[2]": {"test_system": "isolated rings of the saphenous artery of rabbits", "test": "Vessel-relaxing action in vitro, phenylephrine-induced contractions of isolated saphenous artery rings", "conditions": "Oryctolagus cuniculus; concentration reducing phenylephrine-induced contraction (3×10^−8 g/ml) of rabbit saphenous artery rings by 50%", "procedure": "as §1\nVessel-Relaxing Action In Vitro\nIndividual 3-mm-wide rings of the isolated saphenous artery of rabbits are introduced into 5 ml organ baths with Krebs-Henseleit solution (37° C., gassed with carbogen). The vessel tone is monitored isometrically and registered. Contractions are induced by addition of 3×10^−8 g of phenylephrine/ml, which is washed out again after 4 min. After a number of control cycles, the rings are pre-incubated with the substance to be examined, with the dosage being increased for each further cycle, and the subsequent contraction is compared to the intensity of the last control contraction. The concentration required to reduce the intensity of the control value by 50% (IC50) is calculated."}}}
{"smiles": "Nc1nc(Nc2ccc(Cc3ccnc4[nH]ccc34)c(F)c2)cc(C(F)(F)F)n1", "note": "[Example 8, N^4-[3-Fluoro-4-(1H-pyrrolo[2,3-b]pyridin-4-ylmethyl)phenyl]-6-(trifluoromethyl)pyrimidine-2,4-diamine]", "values": [{"measurement": "IC50", "setting": "[1]", "result": 7, "unit": "nM"}, {"measurement": "IC50", "setting": "[2]", "result": 86, "unit": "nM"}]}
{"smiles": "Cc1c[nH]c2nccc(Nc3ccc(Nc4cc(Cl)nc(N)n4)cc3F)c12", "note": "[Example 10, 6-Chloro-N^4-{3-fluoro-4-[(3-methyl-1H-pyrrolo[2,3-b]pyridin-4-yl)amino]phenyl}pyrimidine-2,4-diamine]", "values": [{"measurement": "IC50", "setting": "[1]", "result": 3, "unit": "nM"}, {"measurement": "IC50", "setting": "[2]", "result": 8, "unit": "nM"}]}
{"smiles": "Cc1c[nH]c2nccc(Nc3ccc(Nc4cc(C(F)(F)F)nc(N)n4)cc3F)c12", "note": "[Example 11, N^4-{3-Fluoro-4-[(3-methyl-1H-pyrrolo[2,3-b]pyridin-4-yl)amino]phenyl}-6-(trifluoromethyl)pyrimidine-2,4-diamine]", "values": [{"measurement": "IC50", "setting": "[1]", "result": 4, "unit": "nM"}, {"measurement": "IC50", "setting": "[2]", "result": 3, "unit": "nM"}]}
